Measured values reported in patent publication US5457106A, “Pyridine derivatives, their production and use” (Takeda Chemical Industries, Ltd., priority 1991, dated 1995).
Structures can show the parent of a compound that is named as a salt.

How the values were obtained:
cyclooxygenase = target: T1, cyclooxygenase (Rattus norvegicus, UniProt Q63921); assay: Cyclooxygenase inhibitory activity (HHT formation from arachidonic acid in rat platelet-rich plasma); type: cell-based, rat (Jcl:wistar)
T1 construct: from tissue; host or cells: platelets in platelet-rich plasma from rat abdominal aorta blood (Jcl:wistar, male)
T1 sequence (Q63921 27-602): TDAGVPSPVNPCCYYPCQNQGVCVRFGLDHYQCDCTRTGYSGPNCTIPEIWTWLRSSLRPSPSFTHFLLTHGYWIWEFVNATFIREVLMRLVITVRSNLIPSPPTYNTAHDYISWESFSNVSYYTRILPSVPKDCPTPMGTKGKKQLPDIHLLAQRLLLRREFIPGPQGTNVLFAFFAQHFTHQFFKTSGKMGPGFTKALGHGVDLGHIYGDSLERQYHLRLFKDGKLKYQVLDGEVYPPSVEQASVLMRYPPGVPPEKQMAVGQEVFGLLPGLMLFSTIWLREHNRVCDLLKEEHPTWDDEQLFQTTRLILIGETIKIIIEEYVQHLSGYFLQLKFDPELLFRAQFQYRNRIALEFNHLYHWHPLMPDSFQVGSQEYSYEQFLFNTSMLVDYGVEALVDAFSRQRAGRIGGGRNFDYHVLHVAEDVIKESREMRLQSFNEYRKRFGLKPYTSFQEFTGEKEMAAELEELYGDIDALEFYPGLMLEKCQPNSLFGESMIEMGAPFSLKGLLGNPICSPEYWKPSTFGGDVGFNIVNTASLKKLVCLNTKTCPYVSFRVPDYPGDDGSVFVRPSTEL

[1] = tested on: Rat reversed passive Arthus reaction (skin); assay: Rat reversed passive Arthus reaction (skin) inhibitory activity; type: in vivo, rat (Jcl: SD); settings: po, orally, read-out: Inhibitory percentage (reversed passive Arthus reaction)
Method: Rat Reversed Passive Arthus Reaction (skin) Inhibitory Activity This reaction was-induced by using domestic rabbit anti-egg albumin (EA) antiserum according to the method of Chang and Otterness [Chang, Y. -H. and Otterness, I. G.: Eur. J. Pharmacol. 69, 155 (1981)]. Using six Jcl: SD male rats (7 weeks old, weight about 250 g) per one group, the hair was removed from the back under ether anesthesia, 1 ml of 0.5% EA physiological saline was injected […] into the tail vein, and further each 0.1 ml of diluted antiserum (6 mg protein antibody/ml) was injected in the back on both dexter and sinister sides. […] Acceleration of permeability through the vessel by the reaction was measured by injecting 1 ml of 1% Evans blue physiological saline intravenously at three hours after the induction of the reaction. Then, after 30 minutes, the rat was sacrificed by exsanguination. The skin was peeled off and the area of pigment spot (length×breadth, mm^2) was measured.

[2] = tested on: brewer's yeast induced pyrexia; assay: Antipyretic activity (brewer's yeast induced pyrexia); type: in vivo, rat (DS line); settings: orally; for Antipyretic activity, .increment. °C.: at peak time
Procedure, shortened: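 Male DS rats (7 weeks, 200-240 g) made febrile by s.c. 15% brewer's yeast 18 h before dosing; only animals at ≥38.5° C used. Compound given orally versus solvent control, with rectal temperature taken by thermistor hourly for 5 h post-dose.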

[3] = tested on: ART (antigen-responding T-cell); assay: In vitro ART (antigen-responding T-cell) proliferation test; type: cell-based, Lewis rat; settings: Rattus norvegicus, T-cell, read-out: % Inhibition of ART growth
[4] = tested on: Mouse phenylquinone writhing; assay: Mouse phenylquinone writhing inhibitory activity; type: in vivo, mouse (Slc: ICR); settings: Mus musculus, po, 20 min, 50 mg/kg, orally; read-out: Inhibitory percentage (phenylquinone writhing)
Procedure, shortened: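 Male ICR mice (4 weeks, 17–24 g) dosed orally with compound suspended in 5% gum arabic. After 30 min, 0.02% phenylquinone (0.1 ml/10 g) given i.p.; writhing and stretching responses counted over 20 min.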

[5] = tested on: Rat carrageenin pedal edema; assay: Rat carrageenin pedal edema inhibitory activity; type: in vivo, rat (Jcl: SD); settings: Rattus norvegicus, po, 3 h, orally, 3 hours after carrageenin, read-out: Inhibitory percentage (carrageenin pedal edema)
Procedure, shortened: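 Male Jcl:SD rats (6 weeks, 160-220 g) received test compound orally as a 5% gum arabic suspension, topped up with water to 5 ml/rat. One hour later 0.05 ml of 1% carrageenin was injected subcutaneously into the right hind foot pad. Edema volume was the foot volume increase 3 hours post-injection.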

ICAM-1 = assay: Adhesion protein expression inhibitory activity, ICAM-1; type: cell-based; settings: human umbilical vascular endothelial cells, TNF-α, 360 min
Method: (§1) Adhesion Protein Expression Inhibitory Activity The various concentrations of test compounds were added to the human umbilical cord-derived vascular endothelial cells [sold by Klabo] which were seeded in the gelatin coat plate and the mixture was incubated at 37° C. for 15 minutes. Then, the human tumor necrosis factor-α[TNF-α; sold by Genzyme] was added therein to the final concentration of 1 ng/ml and incubation was carried out at 37° C. for 3 hours for expression of ELAM-1 and for 6 hours for that of ICAM-I. After the reaction, the cells were fixed using glutaraldhyde and the expression amount of ELAM-1 and ICAM-1 was measured by the cell-ELISA method. That is, the expression was determined by […] the adhesion proteins on the cells in the system using anti-ELAM-1 antibody BBA-2 and anti-ICAM-1 antibody BBA4 as the first antibody as well as horseradish peroxidase-labeled rabbit anti-mouse IgG antibody as the second antibody.

[6] = tested on: PAF induced respiratory tract constriction; assay: PAF induced respiratory tract constriction inhibitory activity; type: in vivo, guinea pig (Hartley); settings: intravenously
From the text: PAF Induced Respiratory Tract Constriction Inhibitory Activity Male and female Hartley guinea pigs, weighing about 100 g, were used. The guinea pigs were fixed at a dorsal position under urethane anethesia (1.5 g/kg, i.p.). One leg of a cannula (having four legs) was inserted in the trachea and two of the other three legs were bound to the respirator (Harvard apparatus rodent respirator). The remaining one leg (side branch) was bound to the bronchospasm transducer 7.020 (Ugobasile). Under the conditions of 5 to 7 ml of air supply/time, 70 times/min. of supply time and 10 cm H2 O of pulmonary pressure load, the amount of over flow air was recorded on a Rectigraph (Rectigraph-8S, Saneissoki) via the transducer. After Gallamine […] treatment (1 mg/kg, i.v.), PAF was administered intravenously (1.0 μg/kg) and the maximum respiratory tract constriction response was observed after 30 seconds. Under these conditions, the inhibitory activity of the test compounds were examined.

ELAM-1 = assay: Adhesion protein expression inhibitory activity, ELAM-1; type: cell-based; settings: 13 μM, human umbilical vascular endothelial cells, TNF-α; 180 min
Method: as §1

[7] = tested on: Mouse acetic acid writhing; assay: Mouse acetic acid writhing inhibitory activity; type: in vivo, mouse (Slc: ICR); settings: Mus musculus, po, 20 min, orally, read-out: Inhibitory percentage (acetic acid writhing)
Method: Mouse Acetic Acid Writhing Inhibitory Activity
Ten male Slc: ICR mice, 4 weeks old, per 1 group were used. A test compound was administered orally, and after 30 minutes, 0.1 ml/10 g body weight of physiological saline containing 0.6% acetic acid was injected intraperitoneally. For 20 minutes, writhing (in agony condition) response by administration of acetic acid was counted regarding individual animals. The inhibitory percentage relative to the mean response counts of a control group was calculated regarding respective animals in a test compound administration group. The test compound was suspended in 5% gum arabic solution, and the administration volume was 0.2 ml/10 g.

[8] = tested on: brewer's yeast inflamed rat hind limb foot pad pain threshold; assay: Pain relief test by Randall Celit method; type: in vivo; settings: orally
Method: Pain Relief Test By Randall Celit Method
Seven to eight male Jcl: […] rats, 5 weeks old, per one group were used. 0.1 ml of 10% brewer's yeast physiological saline suspension was injected subcutaneously in the rat dexter hind limb foot pad to induce inflammation. After three hours, the pain threshold was measured by pressure stimulating pain relief measuring apparatus manufactured by Ugo Basile Company (Cat. No. 7200) using an index of […] pain reflex in the inflammatory limb (dexter hind limb), and this was taken as response threshold value in the inflammatory limb. A test compound was administered after additional 45 minutes orally, and the threshold was measured after one and two hours. The efficacy was determined by comparing threshold of a control group and that of the test compound group. The test compound was suspended in 5% gum arabic solution and the administration volume was 0.5 ml/100 g.

Row | Compound | Antipyretic activity, peak time ([2]; 50 mg/kg) | Antipyretic activity, .increment. °C. ([2]; 50 mg/kg) | inhibition at 1 µM [3] | inhibition at 10 µM [3] | inhibition in vivo at 50 mg/kg [5] | Inhibitory activity (PAF induced respiratory tract constriction) ([6]; 3 mg/kg) | inhibition in vivo at 50 mg/kg [7] | also measured
1 | CC(C)(C)c1ccc(C(=O)NCCCSc2ccncc2)cc1 [Example 32, 4-[3-(4-t-butylbenzoylamino)propylthio]pyridine hydrochloride] | 1 h | -1.39 °C | 43% | 37% | – | – | – | IC50 (cyclooxygenase): 6.5 µM; inhibition in vivo at 50 mg/kg [1]: 41%; inhibition in vivo at 50 mg/kg [4]: 63%
2 | O=C1c2ccccc2C(=O)N1CSc1ccncc1 [Example 62, 4-(phthalimidomethylthio)pyridine] | 4 h | -1.40 °C | – | – | 36% | – | – | inhibition in vivo at 50 mg/kg [1]: 27%; inhibition in vivo at 50 mg/kg [4]: 55%; inhibition in vivo at 12.5 mg/kg ([5]; 12.5 mg/kg): 20%
3 | O=c1c2ccccc2oc(=S)n1CCCSc1ccncc1 [Example 141, 3-[3-(4-pyridylthio)propyl]-2H-1,3-benzoxadine-2-thion-4(3H)-one] | 3 h | -2.40 °C | -21% | 64% | 36% | 51.7% | – | Antipyretic activity, peak time ([2]; 12.5 mg/kg): 3 h; Antipyretic activity, .increment. °C. ([2]; 12.5 mg/kg): -1.60 °C; Expression Inhibitory Potency, ICAM-1 (ICAM-1; 3 μM): 21%; Expression Inhibitory Potency, ICAM-1 (ICAM-1; 30 μM): 54%
4 | O=c1c2ccccc2n(CCCCSc2ccncc2)c(=O)n1CCCCSc1ccncc1 [Example 147, 1,3-bis[4-(4-pyridylthio)butyl]quinazolin-2,4(1H,3H)-dione] | – | – | 9% | 72% | – | 50.7% | 46% | Expression Inhibitory Potency, ELAM-1 (ELAM-1): 96%; IC50 (cyclooxygenase): 1.8 µM; Expression Inhibitory Potency, ICAM-1 (ICAM-1; 13 μM): 83%
5 | O=c1c2ccccc2oc(=S)n1CCCCSc1ccncc1 [Example 162, 3-[4-(4-pyridylthio)butyl]-2H-1,3-benzoxadine-2-thion-4(3H)-on] | – | – | -31% | -54% | 34% | 39.8% | – | –
6 | O=C1CSC(=O)N1CSc1ccncc1 [Example 169, 4-(2,4-thiazolidinedionemethylthio)pyridine] | 2 h | -2.43 °C | – | – | 44% | – | 96% | % Of Control (pain threshold) ([8]; 50 mg/kg, 1 hour): 215.2 ± 16.1 % Of Control; % Of Control (pain threshold) ([8]; 50 mg/kg, 2 hours): 158.4 ± 26.2 % Of Control; % Of Control (pain threshold) ([8]; 200 mg/kg, 1 hour): 242 ± 21.9 % Of Control; % Of Control (pain threshold) ([8]; 200 mg/kg, 2 hours): 326.1 ± 80.1 % Of Control; Antipyretic activity, peak time ([2]; 12.5 mg/kg): 2 h; Antipyretic activity, .increment. °C. ([2]; 12.5 mg/kg): -2.13 °C
7 | CC1(C)OC(=O)N(CSc2ccncc2)C1=O [Example 173, 4-(5,5-dimethyloxazolidine-2,4-dione)methylthiopyridine] | 2 h | -2.02 °C | – | – | 23% | – | 75% | % Of Control (pain threshold) ([8]; 200 mg/kg, 1 hour): 222.7 ± 26.4 % Of Control; % Of Control (pain threshold) ([8]; 200 mg/kg, 2 hours): 165.8 ± 24.9 % Of Control; Expression Inhibitory Potency, ICAM-1 (ICAM-1; 30 μM): 35%
8 | Cl.Cl.O=c1c2ccccc2n(CSc2ccncc2)c(=O)n1CCCCSc1ccncc1 [Example 199, 1-(4-pyridylthio)methyl-3-[4-(4-pyridylthio)butyl]quinazoline-2,4(1H,3H)-dione dihydrochloride] | – | – | – | – | – | 53.5% | – | –
9 | Cl.Cl.O=c1c2ccccc2n(CCCCSc2ccncc2)c(=S)n1CCCCSc1ccncc1 [Example 200, 1,3-bis[4-(4-pyridylthio)butyl]quinazoline-2(1H)-thion-4(3H)-one dihydrochloride] | – | – | – | – | – | – | – | Expression Inhibitory Potency, ELAM-1 (ELAM-1): 71%; Expression Inhibitory Potency, ICAM-1 (ICAM-1; 13 μM): 83%; Inhibitory activity (PAF induced respiratory tract constriction) ([6]; 10 mg/kg): 61.4%
10 | CCC(=O)N(CCCCSc1ccncc1)c1ccccc1N(CCCCSc1ccncc1)C(=O)CC.Cl.Cl [Example 203, 1,2-bis[N-[4-(4-pyridylthio)butyl]-N-propionylamino]benzene dihydrochloride] | – | – | – | – | – | – | – | Inhibitory activity (PAF induced respiratory tract constriction) ([6]; 0.3 mg/kg): 90.4%
